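Briefly, cells in 96-well plates were exposed to five compound concentrations for 48 h, and endpoints were estimated by linear interpolation. Abbreviation: GI50, concentration required for 50% inhibition of growth. TGI: concentration producing complete growth inhibition.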
Legend:
Experiment in all cases: DTP human tumour cell line panel, 48 h
OVCAR-5 ovarian = system: OVCAR-5 ovarian
IGROV1 ovarian = system: IGROV1 ovarian
EKVX NSCLC = system: EKVX NSCLC
M14 melanoma = system: M14 melanoma
NCI/ADR-RES ovarian = system: NCI/ADR-RES ovarian
BT-549 breast = system: BT-549 breast
SNB-19 CNS = system: SNB-19 CNS
UACC-62 melanoma = system: UACC-62 melanoma
DU-145 prostate = system: DU-145 prostate
K-562 leukemia = system: K-562 leukemia
COLO 205 colon = system: COLO 205 colon
T-47D breast = system: T-47D breast
MDA-MB-435 = system: MDA-MB-435
HS 578T breast = system: HS 578T breast
SK-MEL-28 melanoma = system: SK-MEL-28 melanoma
SR leukemia = system: SR leukemia
SW-620 colon = system: SW-620 colon
UACC-257 melanoma = system: UACC-257 melanoma
A549 NSCLC = system: A549 NSCLC
NCI-H23 lung = system: NCI-H23 lung
PC-3 prostate = system: PC-3 prostate
RXF 393 renal = system: RXF 393 renal
UO-31 renal = system: UO-31 renal
HCC-2998 colon = system: HCC-2998 colon
SN12C renal = system: SN12C renal
OVCAR-8 ovarian = system: OVCAR-8 ovarian
SF-295 CNS = system: SF-295 CNS
CCRF-CEM leukemia = system: CCRF-CEM leukemia
OVCAR-3 ovarian = system: OVCAR-3 ovarian
TK-10 renal = system: TK-10 renal
HL-60(TB) leukemia = system: HL-60(TB) leukemia
SF-268 CNS = system: SF-268 CNS
ACHN renal = system: ACHN renal
CAKI-1 renal = system: CAKI-1 renal
SNB-75 CNS = system: SNB-75 CNS
U251 CNS = system: U251 CNS
MALME-3M melanoma = system: MALME-3M melanoma
RPMI-8226 leukemia = system: RPMI-8226 leukemia
KM12 colon = system: KM12 colon
HOP-62 NSCLC = system: HOP-62 NSCLC
MDA-MB-231 breast = system: MDA-MB-231 breast
OVCAR-4 ovarian = system: OVCAR-4 ovarian
HCT-116 colon = system: HCT-116 colon
SK-MEL-5 melanoma = system: SK-MEL-5 melanoma
SK-OV-3 ovarian = system: SK-OV-3 ovarian
NCI-H522 lung = system: NCI-H522 lung
MCF7 breast = system: MCF7 breast
786-0 renal = system: 786-0 renal
LOX IMVI melanoma = system: LOX IMVI melanoma
HT29 colon = system: HT29 colon
HCT-15 colon = system: HCT-15 colon
SK-MEL-2 melanoma = system: SK-MEL-2 melanoma
NCI-H460 lung = system: NCI-H460 lung
MOLT-4 leukemia = system: MOLT-4 leukemia
A498 renal = system: A498 renal
HOP-92 NSCLC = system: HOP-92 NSCLC

Cn1cncc1-c1c(F)cncc1NC(=O)c1c(N)nn2cc(F)cnc12
GI50 (OVCAR-5 ovarian): 13 µM
TGI (OVCAR-5 ovarian): > 100 µM
GI50 (IGROV1 ovarian): 2.54 µM
TGI (IGROV1 ovarian): 13.8 µM
GI50 (EKVX NSCLC): 5.18 µM
TGI (EKVX NSCLC): > 100 µM
GI50 (M14 melanoma): 0.231 µM
TGI (M14 melanoma): 91.4 µM
GI50 (NCI/ADR-RES ovarian): 1.45 µM
TGI (NCI/ADR-RES ovarian): > 100 µM
GI50 (BT-549 breast): 0.838 µM
TGI (BT-549 breast): 15.4 µM
GI50 (SNB-19 CNS): 5.2 µM
TGI (SNB-19 CNS): > 100 µM
GI50 (UACC-62 melanoma): 2.22 µM
TGI (UACC-62 melanoma): 6.9 µM
GI50 (DU-145 prostate): 0.803 µM
TGI (DU-145 prostate): 49.3 µM
GI50 (K-562 leukemia): 0.389 µM
TGI (K-562 leukemia): > 100 µM
GI50 (COLO 205 colon): 5.68 µM
TGI (COLO 205 colon): > 100 µM
GI50 (T-47D breast): 4.32 µM
TGI (T-47D breast): > 100 µM
GI50 (MDA-MB-435): 0.933 µM
TGI (MDA-MB-435): > 100 µM
GI50 (HS 578T breast): 1.21 µM
TGI (HS 578T breast): 24.2 µM
GI50 (SK-MEL-28 melanoma): 6.52 µM
TGI (SK-MEL-28 melanoma): 86.8 µM
GI50 (SR leukemia): 0.206 µM
TGI (SR leukemia): 2.54 µM
GI50 (SW-620 colon): 4.12 µM
TGI (SW-620 colon): > 100 µM
GI50 (UACC-257 melanoma): 20.9 µM
TGI (UACC-257 melanoma): > 100 µM
GI50 (A549 NSCLC): 2.27 µM
TGI (A549 NSCLC): > 100 µM
GI50 (NCI-H23 lung): 0.093 µM
TGI (NCI-H23 lung): 1.34 µM
GI50 (PC-3 prostate): 3.41 µM
TGI (PC-3 prostate): > 100 µM
GI50 (RXF 393 renal): 0.278 µM
TGI (RXF 393 renal): 16.8 µM
GI50 (UO-31 renal): 0.303 µM
TGI (UO-31 renal): 60.5 µM
GI50 (HCC-2998 colon): 0.0612 µM
TGI (HCC-2998 colon): > 100 µM
GI50 (SN12C renal): 3.98 µM
TGI (SN12C renal): 37.6 µM
GI50 (OVCAR-8 ovarian): 5.83 µM
TGI (OVCAR-8 ovarian): > 100 µM
GI50 (SF-295 CNS): 0.625 µM
TGI (SF-295 CNS): 6.61 µM
GI50 (CCRF-CEM leukemia): 0.0723 µM
TGI (CCRF-CEM leukemia): 22.8 µM
GI50 (OVCAR-3 ovarian): 0.407 µM
TGI (OVCAR-3 ovarian): 2.29 µM
GI50 (TK-10 renal): 4.54 µM
TGI (TK-10 renal): 83.7 µM
GI50 (HL-60(TB) leukemia): 0.272 µM
TGI (HL-60(TB) leukemia): 0.717 µM
GI50 (SF-268 CNS): 4.04 µM
TGI (SF-268 CNS): 46.2 µM
GI50 (ACHN renal): 0.422 µM
TGI (ACHN renal): > 100 µM
GI50 (CAKI-1 renal): 1.45 µM
TGI (CAKI-1 renal): 21.7 µM
GI50 (SNB-75 CNS): 6.5 µM
TGI (SNB-75 CNS): 48.6 µM
GI50 (U251 CNS): 4.48 µM
TGI (U251 CNS): > 100 µM
GI50 (MALME-3M melanoma): 5.16 µM
TGI (MALME-3M melanoma): 68.5 µM
GI50 (RPMI-8226 leukemia): 1.53 µM
TGI (RPMI-8226 leukemia): 9.4 µM
GI50 (KM12 colon): 1.52 µM
TGI (KM12 colon): > 100 µM
GI50 (HOP-62 NSCLC): 5.21 µM
TGI (HOP-62 NSCLC): > 100 µM
GI50 (MDA-MB-231 breast): 4.72 µM
TGI (MDA-MB-231 breast): > 100 µM
GI50 (OVCAR-4 ovarian): 1.27 µM
TGI (OVCAR-4 ovarian): 14.4 µM
GI50 (HCT-116 colon): 2.07 µM
TGI (HCT-116 colon): 16.3 µM
GI50 (SK-MEL-5 melanoma): 1.23 µM
TGI (SK-MEL-5 melanoma): 2.48 µM
GI50 (SK-OV-3 ovarian): 0.743 µM
TGI (SK-OV-3 ovarian): 8.92 µM
GI50 (NCI-H522 lung): 3.46 µM
TGI (NCI-H522 lung): 19.8 µM
GI50 (MCF7 breast): 0.0515 µM
TGI (MCF7 breast): 56.4 µM
GI50 (786-0 renal): 0.338 µM
TGI (786-0 renal): > 100 µM
GI50 (LOX IMVI melanoma): 0.238 µM
TGI (LOX IMVI melanoma): 10.4 µM
GI50 (HT29 colon): 3.61 µM
TGI (HT29 colon): > 100 µM
GI50 (HCT-15 colon): 0.18 µM
TGI (HCT-15 colon): > 100 µM
GI50 (SK-MEL-2 melanoma): 0.0751 µM
TGI (SK-MEL-2 melanoma): 0.397 µM
GI50 (NCI-H460 lung): 1.27 µM
TGI (NCI-H460 lung): > 100 µM
GI50 (MOLT-4 leukemia): 0.203 µM
TGI (MOLT-4 leukemia): 1.1 µM
GI50 (A498 renal): 0.526 µM
TGI (A498 renal): 8.83 µM
GI50 (HOP-92 NSCLC): 4.43 µM
TGI (HOP-92 NSCLC): 69.4 µM

— PubChem BioAssay (NCI)
